Values after ≈ are worked out from the molar mass of the structure shown. Active and inactive are the calls of the source. No cut-off for these calls is given here.
Columns and labels:
Klebsiella pneumoniae [1] = experiment: Antimicrobial activity against blaKPC-possessing Klebsiella pneumoniae isolates by agar dilution method; assay type: functional
Klebsiella pneumoniae [2] = experiment: Antimicrobial activity against blaKPC-possessing Klebsiella pneumoniae isolates in presence of 4 ug/ml by agar dilution method; assay type: functional
Klebsiella pneumoniae [3] = experiment: Inhibition of Beta-lactamase KPC-2 in Klebsiella pneumoniae isolates assessed as reduction in antimicrobial MIC of beta-lactams by agar dilution method relative to untreated control
Klebsiella pneumoniae [4] = experiment: Antimicrobial activity against blaKPC-possessing Klebsiella pneumoniae isolates assessed as susceptible isolates in presence of 4 ug/ml by agar dilution method; assay type: functional
Klebsiella pneumoniae [5] = experiment: Antimicrobial activity against blaKPC-possessing Klebsiella pneumoniae isolates assessed as susceptible isolates by agar dilution method; assay type: functional

Row | Compound | MIC50 (Klebsiella pneumoniae [1]) | MIC90 (Klebsiella pneumoniae [1]) | MIC50 (Klebsiella pneumoniae [2]) | MIC90 (Klebsiella pneumoniae [2]) | inhibition (Klebsiella pneumoniae [3]) | Activity (Klebsiella pneumoniae [4]) | Activity (Klebsiella pneumoniae [5]) | Reduction in beta-lactam MIC (qualitative call) (Klebsiella pneumoniae [3])
1 | C[C@H]1[C@H](NC(=O)/C(=N\OC(C)(C)C(=O)O)c2csc(N)n2)C(=O)N1S(=O)(=O)O [AZTREONAM] | ≥ 512 µg/mL | ≥ 512 µg/mL | 16 µg/mL | 128 µg/mL | Active | 14.3% | 0% | –
2 | CO/N=C(\C(=O)N[C@@H]1C(=O)N2C(C(=O)[O-])=C(C[N+]3(C)CCCC3)CS[C@H]12)c1csc(N)n1 [CEFEPIME] | 32 µg/mL (≈ 66.6 µM) | 128 µg/mL (≈ 266 µM) | 2 µg/mL | 16 µg/mL | – | 88.1% | 7.1% | Active
3 | CO/N=C(\C(=O)N[C@@H]1C(=O)N2C(C(=O)O)=C(COC(C)=O)CS[C@H]12)c1csc(N)n1 [CEFOTAXIME] | 64 µg/mL (≈ 141 µM) | ≥ 512 µg/mL | 2 µg/mL | 4 µg/mL | – | 38.1% | 0% | Active
4 | CCN1CCN(C(=O)N[C@@H](C(=O)N[C@@H]2C(=O)N3[C@@H]2SC(C)(C)[C@@H]3C(=O)O)c2ccccc2)C(=O)C1=O [PIPERACILLIN] | ≥ 512 µg/mL | ≥ 512 µg/mL | 64 µg/mL | 128 µg/mL | – | 16.7% | 0% | Active
